Data: patent US20030215817A1, “Modulation of gene expression in formation of fatty atherosclerotic lesions” (priority 2003, published 2003)
Structures can show the parent of a compound that is named as a salt.

Assays:
[1] = test system: Rec1_6 (MspI ATCC 176) mRNA; test: quantified RT-PCR, Rec1_6; assay type: in vivo, rabbit; conditions: for Relative Abundance Rec1_6, 20 pg F: hypercholesterolemic plus lercanidipine racemate, eight weeks, H2 (normocholesterolemic)=1.0
Description: Nineteen of the isolated DST clones were further validated using RT-PCR analyses; the data are presented in FIGS. 6-24 and in Tables 5-23, below. For each DST examined, the optimal annealing temperature and reagent conditions were determined for the corresponding set of primers (see Table 25) based on results from a preliminary experiment. In eight separate reactions, each set of primers was assayed to find the optimal conditions by adjusting the following four parameters: primer concentration, dNTP concentration, MgCl2 concentration, and number of Taq polymerase units. Once optimal conditions were determined, each DST was run in duplicate multiple simultaneous reactions which usually included at least four dilutions of template (cDNA library), plus control reactions lacking template, and six sequential data points for numbers of cycles. Reactions were performed using “Hot Start” PCR with the Clontech TaqStart antibody system (Cat. #5400-1). Each reaction contained 1 ml of the cDNA library dilution as template, determined amounts of AmpliTaq DNA polymerase (cat. #N808-0156), MgCl2, dNTPs (GibcoBRL cat. #10297-018), primer, and Clontech TaqStart Antibody in a 20 ml final reaction volume using 10×Taq buffer II (without MgCl2). Typically, a master mix containing all components except the template was prepared and aliquoted. Various templates were then added to these master mix samples and 20 ml volumes were subsequently dispensed into individual reaction tubes. At various times during the PCR run, tubes were removed sequentially on a predetermined schedule in order to quantitate expression of the target DST over a “window” of cycle times. After amplification, the samples were quantified via fluorimetry. PCR was performed at annealing temperatures that were five degrees above the average melting temperature of each primer pair. For primers greater than 10 bases (in a 0.05M salt solution), melting temperature was calculated using the following formula: Tm=59.9+41[% GC]−[675/Primer Length], where %GC is the decimal value. Following determination of the average melting temperature of the primer pair, the annealing temperature was determined by adding five degrees to the average melting temperature. PCR was performed using the following program: 1) 95 degrees Celsius, 3 minutes; 2) 95 degrees Celsius, 30 seconds; 3) TM+5 degrees Celsius, 30 seconds; 4) 72 degrees Celsius, for a time dependent on target length at 16 bp/second; 5) repeat steps 2-4 33 more cycles; 6) 72 degrees Celsius, 3 minutes; 7) 14 degrees Celsius, forever. Following temperature cycling, 2 ml of the PCR reaction was added to 140 ml of a 1:280 dilution of PicoGreen (Molecular Probes cat. #P-11495 (10×100 ml)) in TE pH 7.5 in a 96-well Costar UV microtiter plate (Fisher cat. #07-200623). The samples were mixed gently for 1.5 minutes and allowed to equilibrate at room temperature in the dark for 15 minutes. The concentration of the PCR products was quantified by fluorimetry using a PerSeptive Biosystems CytoFluor series 4000 multi-well plate reader. Background fluorescence was determined by using duplicate control samples that were cycled with all reaction components except the template. The mean value from these duplicate background control samples was subtracted from the corresponding experimental values prior to analyzing results. The sensitivity of the PicoGreen dsDNA assay is reported to be 250 pg/ml (50 pg dsDNA in a […] assay volume) using a fluorescence microplate reader such as was used in these measurements. […]

[2] = test system: REC1_2 (MspI AATC 108) mRNA; test: quantified RT-PCR, Rec1_2; assay type: in vivo, rabbit; conditions: for Relative Abundance Rec1_2, 500 pg F: hypercholesterolemic plus lercanidipine racemate, eight weeks, H2 (normocholesterolemic)=1.0
Description: Nineteen of the isolated DST clones were further validated using RT-PCR analyses; the data are presented in FIGS. 6-24 and in Tables 5-23, below. For each DST examined, the optimal annealing temperature and reagent conditions were determined for the corresponding set of primers (see Table 25) based on results from a preliminary experiment. In eight separate reactions, each set of primers was assayed to find the optimal conditions by adjusting the following four parameters: primer concentration, dNTP concentration, MgCl2 concentration, and number of Taq polymerase units. Once optimal conditions were determined, each DST was run in duplicate multiple simultaneous reactions which usually included at least four dilutions of template (cDNA library), plus control reactions lacking template, and six sequential data points for numbers of cycles.
Reactions were performed using “Hot Start” PCR with the Clontech TaqStart antibody system (Cat. #5400-1). Each reaction contained 1 ml of the cDNA library dilution as template, determined amounts of AmpliTaq DNA polymerase (cat. #N808-0156), MgCl2, dNTPs (GibcoBRL cat. #10297-018), primer, and Clontech TaqStart Antibody in a 20 ml final reaction volume using 10×Taq buffer II (without MgCl2). Typically, a master mix containing all components except the template was prepared and aliquoted. Various templates were then added to these master mix samples and 20 ml volumes were subsequently dispensed into individual reaction tubes. At various times during the PCR run, tubes were removed sequentially on a predetermined schedule in order to quantitate expression of the target DST over a “window” of cycle times. After amplification, the samples were quantified via fluorimetry.
PCR was performed at annealing temperatures that were five degrees above the average melting temperature of each primer pair. For primers greater than 10 bases (in a 0.05M salt solution), melting temperature was calculated using the following formula: Tm=59.9+41[% GC]−[675/Primer Length], where %GC is the decimal value. Following determination of the average melting temperature of the primer pair, the annealing temperature was determined by adding five degrees to the average melting temperature. PCR was performed using the following program: 1) 95 degrees Celsius, 3 minutes; 2) 95 degrees Celsius, 30 seconds; 3) TM+5 degrees Celsius, 30 seconds; 4) 72 degrees Celsius, for a time dependent on target length at 16 bp/second; 5) repeat steps 2-4 33 more cycles; 6) 72 degrees Celsius, 3 minutes; 7) 14 degrees Celsius, forever.
Following temperature cycling, 2 ml of the PCR reaction was added to 140 ml of a 1:280 dilution of PicoGreen (Molecular Probes cat. #P-11495 (10×100 ml)) in TE pH 7.5 in a 96-well Costar UV microtiter plate (Fisher cat. #07-200623). The samples were mixed gently for 1.5 minutes and allowed to equilibrate at room temperature in the dark for 15 minutes. The concentration of the PCR products was quantified by fluorimetry using a PerSeptive Biosystems CytoFluor series 4000 multi-well plate reader.
Background fluorescence was determined by using duplicate control samples that were cycled with all reaction components except the template. The mean value from these duplicate background control samples was subtracted from the corresponding experimental values prior to analyzing results. The sensitivity of the PicoGreen dsDNA assay is reported to be 250 pg/ml (50 pg dsDNA in a […] assay volume) using a fluorescence microplate reader such as was used in these measurements. […]

[3] = hypercholesterolemic animals receiving lercanidipine racemate

COC(=O)C1=C(C)NC(C)=C(C(=O)OC(C)(C)CN(C)CCC(c2ccccc2)c2ccccc2)C1c1cccc([N+](=O)[O-])c1 (racemic) [lercanidipine, lercanidipine hydrochloride]
Relative Abundance Rec1_6, 20 pg F ([1]; cycle 24): 3.1 | Relative Abundance Rec1_6, 20 pg F ([1]; cycle 26): 2.2 | Relative Abundance Rec1_6, 20 pg F ([1]; cycle 28): 2.1 | Relative Abundance Rec1_6, 20 pg F ([1]; cycle 30): 1.7 | Relative Abundance Rec1_6, 20 pg F ([1]; cycle 32): 1.4 | Relative Abundance Rec1_6, 20 pg F ([1]; cycle 34): 1.5 | expression of Rec1_6 at 8 weeks (RT-PCR study), in words [1, 3]: somewhat more elevated | Relative Abundance Rec1_2, 500 pg F ([2]; cycle 22): 2.7 | Relative Abundance Rec1_2, 500 pg F ([2]; cycle 24): 0.6 | Relative Abundance Rec1_2, 500 pg F ([2]; cycle 26): 5.0 | Relative Abundance Rec1_2, 500 pg F ([2]; cycle 28): 6.6 | Relative Abundance Rec1_2, 500 pg F ([2]; cycle 30): 2.5 | Relative Abundance Rec1_2, 500 pg F ([2]; cycle 32): 1.6 | expression of Rec1_2 at 8 weeks (RT-PCR study), in words [2, 3]: elevated
